Results: patent publication US12077537B2 (Gilead Sciences, Inc., priority 2020, dated 2024)

System: HIV-IIIb
Test: Antiviral assay in MT4 cells
Assay type: cell-based
Conditions: Human immunodeficiency virus 1, MT4, 120 h; MT-4 cells mixed with HIV-IIIb at m.o.i. 0.003; 5 days at 37° C.; CellTiter-Glo luminescence; 50% decrease in signal, a measure of HIV-1 replication
Summary of the method: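 Compound, tested at ten 3-fold dilutions in quadruplicate in 10% FBS medium, received MT-4 cells pre-mixed 1 hour with HIV-IIIb (m.o.i. 0.003). Protection was read as luminescent cell viability (CellTiter-Glo) after 5 days' culture at 37° C.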

| SMILES | EC50 [nM] |
| --- | --- |
| CN(C)CCNc1nc2nc([C@H](Cc3cc(F)cc(F)c3)NC(=O)Cn3nc(C(F)(F)F)c4c3C(F)(F)[C@@H]3C[C@H]43)c(-c3cccc4c(NS(C)(=O)=O)nn(C)c34)cc2s1 [Example 65, 2-((3bS,4aR)-5,5-difluoro-3-(trifluoromethyl)-3b,4,4a,5-tetrahydro-1H-cyclopropa[3,4]cyclopenta[1,2-c]pyrazol-1-yl)-N—((S)-2-(3,5-difluorophenyl)-1-(2-((2-(dimethylamino)ethyl)amino)-6-(1-methyl-3-(methylsulfonamido)-1H-indazol-7-yl)thiazolo[4,5-b]pyridin-5-yl)ethyl)acetamide] | 23.6 |
| CN(C)C1CCN(c2nc3nc([C@H](Cc4cc(F)cc(F)c4)NC(=O)Cn4nc(C(F)(F)F)c5c4C(F)(F)[C@@H]4C[C@H]54)c(-c4cccc5c(NS(C)(=O)=O)nn(C)c45)cc3s2)CC1 [Example 66, 2-((3bS,4aR)-5,5-difluoro-3-(trifluoromethyl)-3b,4,4a,5-tetrahydro-1H-cyclopropa[3,4]cyclopenta[1,2-c]pyrazol-1-yl)-N—((S)-2-(3,5-difluorophenyl)-1-(2-(4-(dimethylamino)piperidin-1-yl)-6-(1-methyl-3-(methylsulfonamido)-1H-indazol-7-yl)thiazolo[4,5-b]pyridin-5-yl)ethyl)acetamide] | 22.4 |
| CC(CN(C)C)Nc1nc2nc([C@H](Cc3cc(F)cc(F)c3)NC(=O)Cn3nc(C(F)(F)F)c4c3C(F)(F)[C@@H]3C[C@H]43)c(-c3cccc4c(NS(C)(=O)=O)nn(C)c34)cc2s1 (stereo partly drawn) [Example 67, 2-((3bS,4aR)-5,5-difluoro-3-(trifluoromethyl)-3b,4,4a,5-tetrahydro-1H-cyclopropa[3,4]cyclopenta[1,2-c]pyrazol-1-yl)-N-((1S)-2-(3,5-difluorophenyl)-1-(2-((1-(dimethylamino)propan-2-yl)amino)-6-(1-methyl-3-(methylsulfonamido)-1H-indazol-7-yl)thiazolo[4,5-b]pyridin-5-yl)ethyl)acetamide] | 27.3 |
| CCN1CCN(c2nc3nc([C@H](Cc4cc(F)cc(F)c4)NC(=O)Cn4nc(C(F)(F)F)c5c4C(F)(F)[C@@H]4C[C@H]54)c(-c4cccc5c(NS(C)(=O)=O)nn(C)c45)cc3s2)CC1 [Example 68, 2-((3bS,4aR)-5,5-difluoro-3-(trifluoromethyl)-3b,4,4a,5-tetrahydro-1H-cyclopropa[3,4]cyclopenta[1,2-c]pyrazol-1-yl)-N—((S)-2-(3,5-difluorophenyl)-1-(2-(4-ethylpiperazin-1-yl)-6-(1-methyl-3-(methylsulfonamido)-1H-indazol-7-yl)thiazolo[4,5-b]pyridin-5-yl)ethyl)acetamide] | 6.7 |
| COCCNc1nc2nc([C@H](Cc3cc(F)cc(F)c3)NC(=O)Cn3nc(C(F)(F)F)c4c3C(F)(F)[C@@H]3C[C@H]43)c(-c3cccc4c(NS(C)(=O)=O)nn(C)c34)cc2s1 [Example 69, 2-((3bS,4aR)-5,5-difluoro-3-(trifluoromethyl)-3b,4,4a,5-tetrahydro-1H-cyclopropa[3,4]cyclopenta[1,2-c]pyrazol-1-yl)-N—((S)-2-(3,5-difluorophenyl)-1-(2-((2-methoxyethyl)amino)-6-(1-methyl-3-(methylsulfonamido)-1H-indazol-7-yl)thiazolo[4,5-b]pyridin-5-yl)ethyl)acetamide] | 9.2 |
| Cn1nc(NS(C)(=O)=O)c2cccc(-c3cc4sc(NCC5(O)CC5)nc4nc3[C@H](Cc3cc(F)cc(F)c3)NC(=O)Cn3nc(C(F)(F)F)c4c3C(F)(F)[C@@H]3C[C@H]43)c21 [Example 70, 2-((3bS,4aR)-5,5-difluoro-3-(trifluoromethyl)-3b,4,4a,5-tetrahydro-1H-cyclopropa[3,4]cyclopenta[1,2-c]pyrazol-1-yl)-N—((S)-2-(3,5-difluorophenyl)-1-(2-(((1-hydroxycyclopropyl)methyl)amino)-6-(1-methyl-3-(methylsulfonamido)-1H-indazol-7-yl)thiazolo[4,5-b]pyridin-5-yl)ethyl)acetamide] | 13.8 |
| Cn1nc(NS(C)(=O)=O)c2cccc(-c3cc4sc(NCc5ncc[nH]5)nc4nc3[C@H](Cc3cc(F)cc(F)c3)NC(=O)Cn3nc(C(F)(F)F)c4c3C(F)(F)[C@@H]3C[C@H]43)c21 [Example 71, N—((S)-1-(2-(((1H-imidazol-2-yl)methyl)amino)-6-(1-methyl-3-(methylsulfonamido)-1H-indazol-7-yl)thiazolo[4,5-b]pyridin-5-yl)-2-(3,5-difluorophenyl)ethyl)-2-((3bS,4aR)-5,5-difluoro-3-(trifluoromethyl)-3b,4,4a,5-tetrahydro-1H-cyclopropa[3,4]cyclopenta[1,2-c]pyrazol-1-yl)acetamide] | 52.2 |
| Cn1nc(NS(C)(=O)=O)c2cccc(-c3cc4sc(N5CCNC(=O)C5)nc4nc3[C@H](Cc3cc(F)cc(F)c3)NC(=O)Cn3nc(C(F)(F)F)c4c3C(F)(F)[C@@H]3C[C@H]43)c21 [Example 72, 2-((3bS,4aR)-5,5-difluoro-3-(trifluoromethyl)-3b,4,4a,5-tetrahydro-1H-cyclopropa[3,4]cyclopenta[1,2-c]pyrazol-1-yl)-N—((S)-2-(3,5-difluorophenyl)-1-(6-(1-methyl-3-(methylsulfonamido)-1H-indazol-7-yl)-2-(3-oxopiperazin-1-yl)thiazolo[4,5-b]pyridin-5-yl)ethyl)acetamide] | 32 |
| Cn1nc(NS(C)(=O)=O)c2cccc(-c3cc4sc(N5CC(C(N)=O)C5)nc4nc3[C@H](Cc3cc(F)cc(F)c3)NC(=O)Cn3nc(C(F)(F)F)c4c3C(F)(F)[C@@H]3C[C@H]43)c21 [Example 73, 1-(5-((S)-1-(2-((3bS,4aR)-5,5-difluoro-3-(trifluoromethyl)-3b,4,4a,5-tetrahydro-1H-cyclopropa[3,4]cyclopenta[1,2-c]pyrazol-1-yl)acetamido)-2-(3,5-difluorophenyl)ethyl)-6-(1-methyl-3-(methylsulfonamido)-1H-indazol-7-yl)thiazolo[4,5-b]pyridin-2-yl)azetidine-3-carboxamide] | 67.7 |
| Cn1nc(NS(C)(=O)=O)c2cccc(-c3cc4sc(N5CCC5C(N)=O)nc4nc3[C@H](Cc3cc(F)cc(F)c3)NC(=O)Cn3nc(C(F)(F)F)c4c3C(F)(F)[C@@H]3C[C@H]43)c21 (stereo partly drawn) [Example 74, 1-(5-((S)-1-(2-((3bS,4aR)-5,5-difluoro-3-(trifluoromethyl)-3b,4,4a,5-tetrahydro-1H-cyclopropa[3,4]cyclopenta[1,2-c]pyrazol-1-yl)acetamido)-2-(3,5-difluorophenyl)ethyl)-6-(1-methyl-3-(methylsulfonamido)-1H-indazol-7-yl)thiazolo[4,5-b]pyridin-2-yl)azetidine-2-carboxamide] | 57.3 |
| Cn1nc(NS(C)(=O)=O)c2cccc(-c3cc4sc(NCCN5CCOCC5)nc4nc3[C@H](Cc3cc(F)cc(F)c3)NC(=O)Cn3nc(C(F)(F)F)c4c3C(F)(F)[C@@H]3C[C@H]43)c21 [Example 75, 2-((3bS,4aR)-5,5-difluoro-3-(trifluoromethyl)-3b,4,4a,5-tetrahydro-1H-cyclopropa[3,4]cyclopenta[1,2-c]pyrazol-1-yl)-N—((S)-2-(3,5-difluorophenyl)-1-(6-(1-methyl-3-(methylsulfonamido)-1H-indazol-7-yl)-2-((2-morpholinoethyl)amino)thiazolo[4,5-b]pyridin-5-yl)ethyl)acetamide] | 9.4 |
| Cn1nc(NS(C)(=O)=O)c2cccc(-c3cc4sc(N5CCN(C6COC6)CC5)nc4nc3[C@H](Cc3cc(F)cc(F)c3)NC(=O)Cn3nc(C(F)(F)F)c4c3C(F)(F)[C@@H]3C[C@H]43)c21 [Example 76, 2-((3bS,4aR)-5,5-difluoro-3-(trifluoromethyl)-3b,4,4a,5-tetrahydro-1H-cyclopropa[3,4]cyclopenta[1,2-c]pyrazol-1-yl)-N—((S)-2-(3,5-difluorophenyl)-1-(6-(1-methyl-3-(methylsulfonamido)-1H-indazol-7-yl)-2-(4-(oxetan-3-yl)piperazin-1-yl)thiazolo[4,5-b]pyridin-5-yl)ethyl)acetamide] | 4.5 |
| Cn1nc(NS(C)(=O)=O)c2cccc(-c3cc4sc(N5CC6(COC6)C5)nc4nc3[C@H](Cc3cc(F)cc(F)c3)NC(=O)Cn3nc(C(F)(F)F)c4c3C(F)(F)[C@@H]3C[C@H]43)c21 [Example 77, 2-((3bS,4aR)-5,5-difluoro-3-(trifluoromethyl)-3b,4,4a,5-tetrahydro-1H-cyclopropa[3,4]cyclopenta[1,2-c]pyrazol-1-yl)-N—((S)-2-(3,5-difluorophenyl)-1-(6-(1-methyl-3-(methylsulfonamido)-1H-indazol-7-yl)-2-(2-oxa-6-azaspiro[3.3]heptan-6-yl)thiazolo[4,5-b]pyridin-5-yl)ethyl)acetamide] | 15.8 |
| CC1CC1Nc1nc2nc([C@H](Cc3cc(F)cc(F)c3)NC(=O)Cn3nc(C(F)(F)F)c4c3C(F)(F)[C@@H]3C[C@H]43)c(-c3cccc4c(NS(C)(=O)=O)nn(C)c34)cc2s1 (stereo partly drawn) [Example 78, 2-((3bS,4aR)-5,5-difluoro-3-(trifluoromethyl)-3b,4,4a,5-tetrahydro-1H-cyclopropa[3,4]cyclopenta[1,2-c]pyrazol-1-yl)-N-((1S)-2-(3,5-difluorophenyl)-1-(6-(1-methyl-3-(methylsulfonamido)-1H-indazol-7-yl)-2-((2-methylcyclopropyl)amino)thiazolo[4,5-b]pyridin-5-yl)ethyl)acetamide] | 42.7 |
| CNc1nc2nc([C@H](Cc3cc(F)cc(F)c3)NC(=O)Cn3nc(C(F)(F)F)c4c3C(F)(F)[C@@H]3C[C@H]43)c(-c3cccc4c(NS(C)(=O)=O)nn(C)c34)cc2s1 [Example 79, 2-((3bS,4aR)-5,5-difluoro-3-(trifluoromethyl)-3b,4,4a,5-tetrahydro-1H-cyclopropa[3,4]cyclopenta[1,2-c]pyrazol-1-yl)-N—((S)-2-(3,5-difluorophenyl)-1-(6-(1-methyl-3-(methylsulfonamido)-1H-indazol-7-yl)-2-(methylamino)thiazolo[4,5-b]pyridin-5-yl)ethyl)acetamide] | 14.9 |
